Converted amounts (≈) assume the structure as drawn. Where two headings read alike, the source gives them in different places.
System: Mycobacterium tuberculosis (Mtb-GFP; H37Rv pMSP12::GFP)
Assay: microbe, parasite or virus in culture
Assay type: cell-based
Conditions: 168 h
[1] = pH 6.8, read-out: Mtb Cho MITC95
[2] = pH 6.8, read-out: Mtb Glu MITC95

SMILES | MIC [1] [µM] | MIC [2] [µM]
Cn1nccc1-c1ccc(N2C[C@H](CNC=N)OC2=O)cc1F [Example 15, (S)-N-((3-(3-fluoro-4-(1-methyl-1H-pyrazol-5-yl)phenyl)-2-oxooxazolidin-5-yl)methyl)formimidamide] | 0.78 (≈ 0.248 µg/mL) | 0.39 (≈ 0.124 µg/mL)
N=CNC[C@H]1CN(c2cc(F)c(-c3cccc(S(N)(=O)=O)c3)c(F)c2)C(=O)O1 [Example 19, (S)-N-((3-(2,6-difluoro-3′-sulfamoyl-[1,1′-biphenyl]-4-yl)-2-oxooxazolidin-5-yl)methyl)formimidamide] | 0.68 (≈ 0.279 µg/mL) | 0.39 (≈ 0.16 µg/mL)
Cc1nnn(-c2ccc(-c3ccc(N4C[C@H](CN/C(N)=N/C#N)OC4=O)cc3F)cn2)n1 [Example 2, (S,E)-2-cyano-1-((3-(3-fluoro-4-(6-(5-methyl-2H-tetrazol-2-yl)pyridin-3-yl)phenyl)-2-oxooxazolidin-5-yl)methyl)guanidine] | 0.19 (≈ 0.0829 µg/mL) | 0.09 (≈ 0.0393 µg/mL)
CC(=N)NC[C@H]1CN(c2ccc(-c3cccc(S(N)(=O)=O)c3)c(F)c2)C(=O)O1 [Example 24, (S)-N-((3-(2-fluoro-3′-sulfamoyl-[1,1′-biphenyl]-4-yl)-2-oxooxazolidin-5-yl)methyl)acetimidamide] | 6.25 (≈ 2.54 µg/mL) | 6.25 (≈ 2.54 µg/mL)
C/C(=N\C#N)NC[C@H]1CN(c2ccc(-c3cccc(S(N)(=O)=O)c3)c(F)c2)C(=O)O1 [Example 7, (S,E)-N′-cyano-N-((3-(2-fluoro-3′-sulfamoyl-[1,1′-biphenyl]-4-yl)-2-oxooxazolidin-5-yl)methyl)acetimidamide] | 1.14 (≈ 0.492 µg/mL) | 1.5 (≈ 0.647 µg/mL)
C/C(=N\C#N)NC[C@H]1CN(c2ccc(-c3ccc(-n4nccn4)nc3)c(F)c2)C(=O)O1 [Example 10, (S,E)-N-((3-(4-(6-(2H-1,2,3-triazol-2-yl)pyridin-3-yl)-3-fluorophenyl)-2-oxooxazolidin-5-yl)methyl)-N′-cyanoacetimidamide] | 0.39 (≈ 0.164 µg/mL) | 0.14 (≈ 0.0589 µg/mL)
C/C(=N\C#N)NC[C@H]1CN(c2ccc(-c3ccnn3C)c(F)c2)C(=O)O1 [Example 6, (S,E)-N′-cyano-N-((3-(3-fluoro-4-(1-methyl-1H-pyrazol-5-yl)phenyl)-2-oxooxazolidin-5-yl)methyl)acetimidamide] | 0.78 (≈ 0.278 µg/mL) | 0.78 (≈ 0.278 µg/mL)
CS(=O)(=O)c1ccc(-c2ccc(N3C[C@H](CN/C(N)=N/C#N)OC3=O)cc2F)cn1 [Example 5, (S,E)-2-cyano-1-((3-(3-fluoro-4-(6-(methylsulfonyl)pyridin-3-yl)phenyl)-2-oxooxazolidin-5-yl)methyl)guanidine] | 0.39 (≈ 0.169 µg/mL) | 0.78 (≈ 0.337 µg/mL)
N#C/N=C(\N)NC[C@H]1CN(c2ccc(-c3ccc(-n4nccn4)nc3)c(F)c2)C(=O)O1 [Example 3, (S,E)-1-((3-(4-(6-(2H-1,2,3-triazol-2-yl)pyridin-3-yl)-3-fluorophenyl)-2-oxooxazolidin-5-yl)methyl)-2-cyanoguanidine] | 0.19 (≈ 0.0801 µg/mL) | 0.19 (≈ 0.0801 µg/mL)
N=CNC[C@H]1CN(c2cc(F)c(N3CCOCC3)c(F)c2)C(=O)O1 [Example 20, (S)-N-((3-(3,5-difluoro-4-morpholinophenyl)-2-oxooxazolidin-5-yl)methyl)formimidamide] | 0.58 (≈ 0.197 µg/mL) | 0.14 (≈ 0.0476 µg/mL)
CC(=N)NC[C@H]1CN(c2ccc(-c3ccc(-n4cnnn4)nc3)c(F)c2)C(=O)O1 [Example 23, (S)-N-((3-(4-(6-(1H-tetrazol-1-yl)pyridin-3-yl)-3-fluorophenyl)-2-oxooxazolidin-5-yl)methyl)acetimidamide] | 12.5 (≈ 4.95 µg/mL) | 6.25 (≈ 2.48 µg/mL)
CC(=N)NC[C@H]1CN(c2ccc(-c3ccnn3C)c(F)c2)C(=O)O1 [Example 21, (S)-N-((3-(3-fluoro-4-(1-methyl-1H-pyrazol-5-yl)phenyl)-2-oxooxazolidin-5-yl)methyl)acetimidamide] | 25 (≈ 8.28 µg/mL) | 25 (≈ 8.28 µg/mL)
C/C(=N\C#N)NC[C@H]1CN(c2ccc(-c3ccc(S(C)(=O)=O)cc3)c(F)c2)C(=O)O1 [Example 14, (S,E)-N′-cyano-N-((3-(2-fluoro-4′-(methylsulfonyl)-[1,1′-biphenyl]-4-yl)-2-oxooxazolidin-5-yl)methyl)acetimidamide] | 0.58 (≈ 0.25 µg/mL) | 0.58 (≈ 0.25 µg/mL)
C/C(=N\C#N)NC[C@H]1CN(c2ccc(N3CCOCC3)c(F)c2)C(=O)O1 [Example 9, (S,E)-N′-cyano-N-((3-(3-fluoro-4-morpholinophenyl)-2-oxooxazolidin-5-yl)methyl)acetimidamide] | 3.12 (≈ 1.13 µg/mL) | 3.12 (≈ 1.13 µg/mL)
CS(=O)(=O)c1ccc(-c2ccc(N3C[C@H](CNC=N)OC3=O)cc2F)cc1 [Example 16, (S)-N-((3-(2-fluoro-4′-(methylsulfonyl)-[1,1′-biphenyl]-4-yl)-2-oxooxazolidin-5-yl)methyl)formimidamide] | 0.39 (≈ 0.153 µg/mL) | 0.19 (≈ 0.0744 µg/mL)
N=CNC[C@H]1CN(c2ccc(-c3ccc(-n4cnnn4)nc3)c(F)c2)C(=O)O1 [Example 17, (S)-N-((3-(4-(6-(1H-tetrazol-1-yl)pyridin-3-yl)-3-fluorophenyl)-2-oxooxazolidin-5-yl)methyl)formimidamide] | 0.24 (≈ 0.0918 µg/mL) | 0.12 (≈ 0.0459 µg/mL)
C/C(=N\C#N)NC[C@H]1CN(c2cc(F)c(N3CCS(=O)(=O)CC3)c(F)c2)C(=O)O1 [Example 11, (S,E)-N′-cyano-N-((3-(4-(1,1-dioxidothiomorpholino)-3,5-difluorophenyl)-2-oxooxazolidin-5-yl)methyl)acetimidamide] | 3.12 (≈ 1.33 µg/mL) | 1.5 (≈ 0.641 µg/mL)
C/C(=N\C#N)NC[C@H]1CN(c2ccc(-c3ccc(S(C)(=O)=O)nc3)c(F)c2)C(=O)O1 [Example 13, (S,E)-N′-cyano-N-((3-(3-fluoro-4-(6-(methylsulfonyl)pyridin-3-yl)phenyl)-2-oxooxazolidin-5-yl)methyl)acetimidamide] | 1.5 (≈ 0.647 µg/mL) | 0.78 (≈ 0.337 µg/mL)
C/C(=N\C#N)NC[C@H]1CN(c2ccc(-c3ccc(-n4nnc(C)n4)nc3)c(F)c2)C(=O)O1 [Example 12, (S,E)-N′-cyano-N-((3-(3-fluoro-4-(6-(5-methyl-2H-tetrazol-2-yl)pyridin-3-yl)phenyl)-2-oxooxazolidin-5-yl)methyl)acetimidamide] | 0.19 (≈ 0.0827 µg/mL) | 0.14 (≈ 0.061 µg/mL)
CC(=O)NC[C@H]1CN(c2ccc(N3CCOCC3)c(F)c2)C(=O)O1 [Linezolid, reference compound] | 3.14 (≈ 1.06 µg/mL) | 4.58 (≈ 1.55 µg/mL)
CS(=O)(=O)c1ccc(-c2ccc(N3C[C@H](CN/C(N)=N/C#N)OC3=O)cc2F)cc1 [Example 4, (S,E)-2-cyano-1-((3-(2-fluoro-4′-(methylsulfonyl)-[1,1′-biphenyl]-4-yl)-2-oxooxazolidin-5-yl)methyl)guanidine] | 0.39 (≈ 0.168 µg/mL) | 0.39 (≈ 0.168 µg/mL)
C/C(=N\C#N)NC[C@H]1CN(c2cnc(N3CCS(=O)(=O)CC3)c(F)c2)C(=O)O1 [Example 8, (S,E)-N′-cyano-N-((3-(6-(1,1-dioxidothiomorpholino)-5-fluoropyridin-3-yl)-2-oxooxazolidin-5-yl)methyl)acetimidamide] | 6.25 (≈ 2.57 µg/mL) | 6.25 (≈ 2.57 µg/mL)
N=CNC[C@H]1CN(c2cc(F)c(-c3ccc(S(N)(=O)=O)cc3)c(F)c2)C(=O)O1 [Example 18, (S)-N-((3-(2,6-difluoro-4′-sulfamoyl-[1,1′-biphenyl]-4-yl)-2-oxooxazolidin-5-yl)methyl)formimidamide] | 0.39 (≈ 0.16 µg/mL) | 0.29 (≈ 0.119 µg/mL)
CC(=N)NC[C@H]1CN(c2cc(F)c(-c3cccc(S(N)(=O)=O)c3)c(F)c2)C(=O)O1 [Example 22, (S)-N-((3-(2,6-difluoro-3′-sulfamoyl-[1,1′-biphenyl]-4-yl)-2-oxooxazolidin-5-yl)methyl)acetimidamide] | 6.25 (≈ 2.65 µg/mL) | 3.12 (≈ 1.32 µg/mL)
Cn1nccc1-c1ccc(N2C[C@H](CN/C(N)=N/C#N)OC2=O)cc1F [Example 1, (S,E)-2-cyano-1-((3-(3-fluoro-4-(1-methyl-1H-pyrazol-5-yl)phenyl)-2-oxooxazolidin-5-yl)methyl)guanidine] | 0.78 (≈ 0.279 µg/mL) | 0.78 (≈ 0.279 µg/mL)

— patent US10752621B2, “Oxazolidinone compounds and methods of use thereof as antibacterial agents” (priority 2017, dated 2020)
